Results as given in patent US8476290B2, “Compound having spiro-bonded cyclic group and use thereof” (Ono Pharmaceutical Co., Ltd., priority 2009, dated 2013).

Assays:
[1] = Blood kinetic test and time (T90) to maintain the IC90 value; format: in vivo, Crl:CD(SD) Rat; conditions: time the plasma concentration stays at the PBMC IC90 value or more; rat, intravenous 1 mg/kg
Experimental: A test compound was weighed, dissolved in WellSolve (trade name; manufactured by Celeste Corporation)/water/physiological saline=1/9/10 which was heated at 60° C. and adjusted to 20 mg/mL. Thereafter, the test compound was diluted by 10 times with distilled water for injection, and further diluted by 2 times with physiological saline. Then, intravenous administration was performed by rapid single administration of an intravenously administered solution (1 mg/kg) from the tail vein of Crl:CD(SD) Rat (male, manufactured by CHARLES RIVER LABORATORIES JAPAN, INC). The administration is conducted under fasting conditions; water is freely ingested. A 0.35 mL blood sample is taken from cervical vein by using Heparinized Syringe at 5 minutes, 15 minutes, 30 minutes, 1 hour, 2 hours, 4 hours, 6 hours, 8 hours, and 24 hours after administration. The obtained blood is stored in ice, and after centrifugation at 12,000 rpm for 5 minutes, blood plasma is fractionated. An internal standard solution (100 μL) and acetonitrile (2 mL) was added to 100 μL of plasma, followed by stirring and further centrifugation at 2,500 rpm for 10 minutes. The supernatant was desiccated by a centrifugal thickener and then 150 μL of an aqueous 67% dimethyl sulfoxide solution was added to the residue thereby dissolving again the residue, and 20 μL of the resultant solution was analyzed by LC/MS/MS.
Analysis by LC/MS/MS was carried out under the following conditions.
A curve of the compound concentration in plasma versus the time of each compound was adapted to a 1 or 2 compartment model using pharmacokinetic analysis software WinNonlin (trade name) (ver4.0.1, Pharsight Corporation).

[2] = test system: X4-HIV-1 strains (for example, HIV-1NL4.3 strains); assay: HIV infection inhibitory test using PBMC; format: cell-based; conditions: human PBMC stimulated with PHA and IL-2, culture 7 days, culture supernatant
Experimental: Human PBMC (peripheral blood mononuclear cells) was isolated from HIV-negative healthy persons and subjected to stimulated culture in the presence of PHA (Phytohemagulutinin) and IL-2. Stimulated PBMC was inoculated in each of 96-well microplates and X^4-HIV-1 strains (for example, HIV-1NL4.3 strains) were exposed in the co-presence of a test compound. After culturing for 7 days, a reverse transcriptase activity of HIV-1 in the culture supernatant was measured and an inhibitory ratio (%) of the test compound was calculated by the following calculation formula, and a concentration (IC90 value) showing a 90% inhibitory ratio was determined. Inhibition={(Et−Ec)/Et}×100 [Equation 1] Et: reverse transcriptase activity value in the absence of a test compound Ec: reverse transcriptase activity value in the presence of a test compound

CXCR4 = target: T1, CXCR4 (Homo sapiens, UniProt P61073); assay: Inhibition of binding human SDF-1 to CEM cells; conditions: 125I-SDF-1, CEM cells, 4° C., 60 minutes; read-out: concentration showing 50% of an inhibition ratio
T1 construct: a human T cell strain in which CXCR4 is known to be expressed; endogenous in cells; host or cells: CEM cells (human T cell strain)
T1 sequence (P61073 whole entry): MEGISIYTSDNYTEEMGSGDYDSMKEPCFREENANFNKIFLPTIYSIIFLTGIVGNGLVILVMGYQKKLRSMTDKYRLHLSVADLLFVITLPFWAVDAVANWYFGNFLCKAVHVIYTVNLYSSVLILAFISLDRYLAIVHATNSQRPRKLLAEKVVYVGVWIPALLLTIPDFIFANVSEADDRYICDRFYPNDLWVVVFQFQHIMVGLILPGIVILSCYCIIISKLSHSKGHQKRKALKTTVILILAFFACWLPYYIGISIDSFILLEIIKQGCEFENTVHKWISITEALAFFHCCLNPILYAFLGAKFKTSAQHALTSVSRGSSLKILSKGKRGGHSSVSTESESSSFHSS
Experimental: Specifically, as a system of screening a compound that inhibits the binding between SDF-1 and CXCR4, for example a system of measuring the binding between iodine-labeled SDF-1 and a human T cell strain in which CXCR4 is known to be expressed is operable.
To human T cell strain CEM cells in a binding buffer (containing 2-[4-(2-Hydroxyethyl)-1-piperadinyl]ethansulfonic acid; HEPES and BSA), the test compound and ^125I-SDF-1 (PerkinElmer) were added and the mixture was incubated at 4° C. for 60 minutes. The reacted CEM cells were rapidly filtrated with a GF/B membrane filter plate (Packard) to adsorb. The plate was washed with phosphate buffered saline (hereinafter abbreviated to PBS) three times and then dried. Microscint+20 (Packard) was added thereto. An amount of the radioactivity bound to the CEM cells was measured using Top Count (Packard) and inhibition ratio (%) of the test compound was calculated according to the following equation: Inhibition={(Et−Ea)/(Et−Ec)}×100 [Equation 2] Et: Amount of radioactivity when the test compound is not added, Ec: Amount of radioactivity when non-radioactive SDF-1 (Pepro Tech) is added in an amount of 1,000 times as much as ^125I-SDF-1 as a test compound, and Ea: Amount of radioactivity when the test compound is added.

[3] = test system: CHL/IU (cell line derived from a Chinese hamster lung); assay: Phospholipid accumulation measurement (phospholipidosis induction); format: cell-based; conditions: NBD-PE, about 48 hours, at 400 μM (maximum treatment concentration); positive = 25% or more of maximum increase rate of amiodarone
Experimental: 100 µL/well as required (1 dose 2 wells) of cell suspension of CHL/IU (cell line derived from a Chinese hamster lung) (7×10^4 cells/mL) prepared by MEM (minimum essential medium) culture medium was added to a 96-well plate (96-well clear-bottom plate), and cultured for about 24 hours. After culture, the supernatant of the 96-well plate was removed, and the 100 μL/well compounds of each concentration dissolved and suspended in a minimum essential medium (MEM) including 25 μM nitrobenzoxazole dipalmitoyl phosphatidylethanolamine (NBD-PE) (hereinafter abbreviated to a NPD-PE medium) were added and treated for about 48 hours. The treatment concentrations of each compound were set to be 5, 50, 100, 200 and 400 μM. The positive control substance was set to be amiodarone hydrochloride, and the treatment concentrations were set to be 1.25, 2.5, 5, 10 and 20 μM. In addition, 5-well untreated controls (only MEM) and 5-well NBD-PE controls (made by means of adding a 1/100 amount of DMSO to the NBD-PE culture medium) were set per compound, and cultured in the same manner. After finishing the culture, the cultures were washed twice with PBS (−) 100 μL/well, and the MEM (100 μL) was added to all of the treatment wells including two empty wells for WST-1 background controls and cultured for about half an hour. The fluorescence intensities of each well were measured by using a microplate reader (manufactured by Molecular Devices Inc., SPECTRA max M2; the excitation wavelength 485 nm/fluorescence wavelength 535 nm). Using the average values of each dose×2 wells, a phospholipid increase rate (%) to the NBD-PE control was calculated by using the following calculating formula: Rate of increase of phospholipid accumulation (%)=100×{(test substance fluorescence intensity−non-treated control fluorescence intensity)/(NBD-PE control fluorescence intensity−non-treated control fluorescence intensity)} 3. Cytotoxicity Test 96-well plate measured in the phospholipid accumulation measurement was measured by means of Plate Reader (manufactured by Molecular Devices Inc., SPECTRA max M2) with the main wavelength of 450 nm and the correct wavelength of 690 nm to calculate a Pre value. An amount of 5 μL/well of Premix WST-1 was added to each of the 96-well plates by which Pre measurement was conducted. After culture for 2 to 4 hours, the 96-well plate was measured as well as the Pre measurement to calculate an Aft value. Then, the background control value was subtracted from the each measured value. A value which was calculated by subtracting the Pre value from the Aft value was used, then the cell growth rate (%) was calculated by using the following calculating formula: Cell growth rate (%)=100×{(test substance OD)/(NBD-PE control OD)} 4. Determination A test dose that indicated value of 25% or more of the maximum phospholipid accumulation increase rate of amiodarone which was the positive control was determined as positive. In addition, the dose whose cell growth rate was equal to or less than 50% in the cytotoxicity test was not used for determination of existence or nonexistence of a phospholipidosis inductive effect.

SMILES: CCC(CC)N1CCC2(CC1)CC(C(=O)O)N(Cc1ccc(CN(Cc3ncc[nH]3)Cc3ncc[nH]3)cc1)C2 (stereo not shown) [Example 5(5), 2-(4-{[bis(1H-imidazol-2-ylmethyl)amino]methyl}benzyl)-8-(1-ethylpropyl)-2,8-diazaspiro[4.5]decane-3-carboxylic acid]
- T90 [1]: 91 h
- IC90 value (concentration showing a 90% inhibitory ratio of HIV-1 reverse transcriptase activity) [2]: 0.27 nM
- IC50 (CXCR4): 3 nM
- phospholipidosis induction activity (determination) [3]: negative
